Columns and labels:
[1] = test system: homologous passive cutaneous anaphylaxis (PCA) reaction; assay: Effect on homologous passive cutaneous anaphylaxis (PCA) reaction in rats; assay type: in vivo, rats (Male wistar rats); settings: for Inhibition (%) of PCA reaction, compared compounds: Comparative Test Example 1, Table 5, compared compounds of EP-A-0598117; for inhibition in vivo at 100 mg/kg: Rattus norvegicus, 0.5 h
Procedure: This experimental animal model is caused by immediate type allergic reaction, namely, antigen-antibody reaction. In the following, the method of this pharmacological test will be explained.
Method: Male wistar rats (9 weeks old) were intradermally administered 0.05 ml of anti-serum against trinitrophenylated ascaris (TNP-As) into two sites on the shaved dorsal skin. 48 hours later, 3-glycosyloxybenzopyran derivatives and 4-glycosyloxybenzopyran derivatives (test compounds) suspended in 0.5% sodium carboxymethylcellulose (CMCNa) were given orally at a dose of 100 mg/kg to the animals. 1 hour after administration of Test compounds, the animals were induced anaphylaxis by injection of saline (1 ml) dissolving 5 mg of Evans Blue and 1 mg of TNP-As into the tail vein of the animals. 30 minutes after induction of anaphylaxis, animals were anesthetized by ether and killed by bleeding, and were flayed dorsal skin. The leakage of dye was assessed by measuring the diameter (mean of shortest and longest diameter) of the blue spot on the inside surface of dorsal skin. As vehicle control group, only 0.5% CMCNa solution was administered orally, and as positive control group, Tranilast suspended in 0.5% CMCNa were administered orally at a dose of 100 mg/kg to the animals with the same method as the test compounds groups. Each experimental group consisted of 5 rats. [formula] In equation 1: A: leakage of dye in vehicle control group
B: leakage of dye in test compound group or in positive control group
The anti-allergic activity of the compounds of the present invention were compared with that of analogous compounds which were published in the Patent (EP-A-0598117) by PCA reaction. This pharmacological test was performed according to the method described in Test Example 1.

[2] = test system: contact dermatitis induced by picryl chloride; assay: Effect on contact dermatitis induced by picryl chloride in mice (delayed type hypersensitization); assay type: in vivo
Procedure: The delayed type hypersensitization is inhibited by steroid, but can not be effected by known anti-allergic agents. In the following, the method of the pharmacological test will be explained.
Method: Mice, shaved their abdominal skin on previous day, were immunized by applying 0.1 ml of acetone containing 7 mg of picryl chloride to the skin of the abdomen. 7 days after immunization, the thickness of the ear was measured with a dial thickness gauge, then mice were challenged by painting 5 μl of 1% picryl chloride olive oil solution to each side skin of left ear. 24 hours after challenge, the thickness of the left ear was measured again and the increase (%) of thickness was calculated according to equation 2. The compounds of the present invention (test compounds) suspended in 0.5% CMCNa were forcibly administered orally at a dose of 100 mg/kg at 1 hour before and 16 hours after challenge. As vehicle control group, only 0.5% CMCNa solution were administered orally, and as positive control group, Prednisolone, steroid hormone, and Tranilast were administered orally at the doses of 10 mg/kg and 100 mg/kg, respectively.
Increase (%)=(A-B)/B×100 (Equation 2)
A: thickness of the ear at 24 hours after challenge
B: thickness of the ear before challenge
Inhibition(%)=(C-D)/C×100 (equation 3)
C: The increase (%) in vehicle control group
D: The increase (%) in test compounds group or positive control group

[3] = test system: airway resistance in experimental asthma model; assay: Effect on experimental asthma model in guinea pigs; assay type: in vivo, guinea pigs (Male hadley); settings: 100 mg/kg oral, OVA challenge, guinea pigs, Table 7; for inhibition in vivo at 100 mg/kg: Cavia porcellus
Procedure: The asthma is typical allergic disease and we carried out this pharmacological test by well known experimental asthma model in guinea pigs in order to confirm that the compounds of the present invention suppress the asthma. In the following, the method of the pharmacological test will be explained.
Method: Male hadley guinea pigs were immunized by intraperitoneal injection of saline (1 ml) containing 5 mg of ovalbumine (OVA) three times at interval of one week. 2 weeks after final immunization, the animals were challenged by inhalation of 1% OVA-saline solution for 1 minute and then the airway resistance of the animals were measured for 30 minutes with PULMOS-1 (Medical Interface Project Station Inc.) after the inhalation. The compounds of the present invention (test compounds) suspended in 0.5% CMCNa were given orally at a dose of 100 mg/kg. As positive control group, Disodium Cromoglicate (DSCG), well known anti-allergic agent, in saline were injected at a dose of 20 mg/kg into the vein of the animals. As vehicle control group, only 0.5% CMCNa solution were given orally. The inhibition (%) of the airway resistance in vehicle control group was calculated according to equation 5 and the result was shown in Table 7. Each experimental group consisted of 5 guinea pigs. [formula] In equation 5: A: Maximum airway resistance in vehicle control group
B: Maximum airway resistance in test compounds group or positive control group

[4] = Mus musculus, 100 mg/kg oral, ear thickness 24 hours after challenge, Table 6, read-out: Inhibition (%) against the increase of ear thickness
[5] = 100 mg/kg oral, 1 hour before antigen, rats, Table 3

Compound | Inhibition (%) of PCA reaction, compared compounds [1] [%] | inhibition in vivo at 100 mg/kg [2, 4] [%] | inhibition in vivo at 100 mg/kg [1, 5] [%] | inhibition in vivo at 100 mg/kg [3] [%] | other results
COc1ccc2c(O)c(OC)c(=O)oc2c1 [Compared compound 1, 4-hydroxy-3,7-dimethoxy-2H-1-benzopyran-2-one, reference compound] | 28.9 | – | – | – | –
CCCCCCCCOc1ccc2c(O)c(OC)c(=O)oc2c1 [Compared compound 2, 3-methoxy-4-hydroxy-7-octyloxy-2H-1-benzopyran-2-one, reference compound] | 32.8 | – | – | – | –
COc1ccc2c(OC)c(O)c(=O)oc2c1 [Compared compound 3, 3-hydroxy-4,7-dimethoxy-2H-1-benzopyran-2-one, reference compound] | 30.6 | – | – | – | –
CCCCCCCCCCOc1ccc2c(OC)c(O)c(=O)oc2c1 [Compared compound 4, 3-hydroxy-4-methoxy-7-decyloxy-2H-1-benzopyran-2-one, reference compound] | 26.4 | – | – | – | –
C[C@]12C=CC(=O)C=C1CC[C@@H]1[C@@H]2[C@@H](O)C[C@@]2(C)[C@H]1CC[C@]2(O)C(=O)CO [Prednisolone, reference compound] | – | – | – | – | inhibition in vivo at 10 mg/kg ([2]; Mus musculus, po, 24 h, read-out: Inhibition (%) against the increase of ear thickness): 63.5%
COc1ccc(/C=C/C(=O)Nc2ccccc2C(=O)O)cc1OC [Tranilast, reference compound] | – | 11.5 | 56.2 | – | inhibition of delayed type hypersensitization ([2]; 100 mg/kg oral, in words): did not inhibit delayed type hypersensitization
COc1ccc2c(OCc3ccccc3)c(O[C@@H]3O[C@H](COC(C)=O)[C@@H](OC(C)=O)[C@H](OC(C)=O)[C@H]3OC(C)=O)c(=O)oc2c1 [compound 3, 7-methoxy-4-benzyloxy-3-(tetra-O-acetyl-β-D-glucopyranosyloxy)-2H-1-benzopyran-2-one] | – | 40.5 | 43.5 | 40 | –
COc1ccc2c(O)c(O[C@@H]3O[C@H](COC(C)=O)[C@@H](OC(C)=O)[C@H](OC(C)=O)[C@H]3OC(C)=O)c(=O)oc2c1 [compound 4, 7-methoxy-4-hydroxy-3-(tetra-O-acety-β-D-glucopyranosyloxy)-2H-1-benzopyran-2-one] | – | 46.3 | 40.2 | 48.3 | –
COc1ccc2c(O)c(O[C@@H]3O[C@H](CO)[C@@H](O)[C@H](O)[C@H]3O)c(=O)oc2c1 [compound 5, 7-methoxy-4-hydroxy-3-(β-D-glucopyranosyloxy)-2H-1-benzopyran-2-one] | – | 51.2 | 48.7 | 62 | –
COc1ccc2c(OCc3ccccc3)c(O[C@@H]3O[C@H](COC(C)=O)[C@@H](OC(C)=O)[C@H](OC(C)=O)[C@@H]3OC(C)=O)c(=O)oc2c1 [compound 6, 7-methoxy-4-benzyloxy-3-(tetra-O-acetyl-β-D-mannopyranosyloxy)-2H-1-benzopyran-2-one] | – | – | – | – | Inhibition (%) against the increase of ear thickness ([2]; 100 mg/kg oral, ear thickness 24 hours after challenge, Table 6): 41.9%; Inhibition (%) of the airway resistance [3]: 38.5%; Inhibition (%) of PCA reaction [1, 5]: 42.3%
COc1ccc2c(OCc3ccccc3)c(O[C@@H]3O[C@H](COC(C)=O)[C@H](OC(C)=O)[C@H](OC(C)=O)[C@H]3OC(C)=O)c(=O)oc2c1 [compound 7, 7-methoxy-4-benzyloxy-3-(tetra-O-acetyl-β-D-galactopyranosyloxy)-2H-1-benzopyran-2-one] | – | 40.3 | 41.1 | 43.7 | –
COc1ccc2c(O)c(O[C@H]3O[C@H](COC(C)=O)[C@@H](OC(C)=O)[C@H](OC(C)=O)[C@@H]3OC(C)=O)c(=O)oc2c1 [compound 8, 7-methoxy-4-hydroxy-3-(tetra-O-acetyl-α-D-mannopyranosyloxy)-2H-1-benzopyran-2-one] | – | 45.3 | 45.2 | 46.7 | –

From US5525595A, “3- or 4-glycosyloxybenzopyran derivative and antiallergic agent containing the derivative as active ingredient” (priority 1993, dated 1996)
